The nature of this experiment: MIC of test compounds against various organisms. It is filed as cell-based. The method, then: The MIC (μg/ml) of test compounds against various organisms was determined including:
S. epidermidis CL7, S. aureus WCUH29, S. pneumoniae 1629, S. pyogenes CN10, H. influenzae ATCC 49247, E. faecalis 2, M. catarrhalis Ravasio, E. coli 7623.

Setting [1] is: versus all these organisms (panel of 8 strains), read-out: MIC.
[2] abbreviates: versus some of these organisms (panel of 8 strains), read-out: MIC.

Structures can show the parent of a compound that is named as a salt. Where two headings read alike, the source gives them in different places. Some results are limits rather than exact numbers.

From US7622481B2, “Antibacterial compounds” (priority 2003, dated 2009) come the findings set out here.

The term MIC denotes the least concentration at which growth counts as inhibited. `CO[C@@H]1C[C@H](C(=O)Nc2cccc3ccc(C)nc23)CC[C@H]1NCc1cc2c(cn1)OCCO2` [Example 39, (1R,3R,4R)-4-[(2,3-Dihydro-[1,4]dioxino[2,3-c]pyridin-7-ylmethyl)-amino]-3-methoxy-cyclohexanecarboxylic acid (2-methyl-quinolin-8-yl)-amide dihydrochloride]: the MIC is ≤ 2 µg/mL.

In the case of `N#Cc1ccc2nccc(NC(=O)[C@]3(O)CC[C@@H](NCc4ccc5c(n4)NC(=O)CS5)CC3)c2c1` [Example 40, 1-Hydroxy-t-4-[(3-oxo-3,4-dihydro-2H-pyrido[3,2-b][1,4]thiazin-6-ylmethyl)-amino]-r-cyclohexanecarboxylic acid (6-cyano-quinolin-4-yl)-amide dihydrochloride], the MIC under setting [1] is ≤ 2 µg/mL. The same measure, in the same setting: the figure for `Cc1cnc2cccc(NC(=O)[C@]3(O)CC[C@@H](NCc4cc5c(cn4)OCCO5)CC3)c2n1` [Example 42, t-4-[(2,3-Dihydro[1,4]dioxino[2,3-c]pyridin-7-ylmethyl)amino]-1-hydroxy-N-(3-methyl-5-quinoxalinyl)-r-cyclohexanecarboxamide dihydrochloride] is ≤ 8 µg/mL.

On to `COc1ccc2nccc(NC(=O)[C@@H]3CC[C@@H](NCc4nc5c(cc4F)SCC(=O)N5)[C@@H](F)C3)c2n1` [Example 32, (1R,3S,4R)-3-Fluoro-4[(7-fluoro-3-oxo-3,4-dihydro-2H-pyrido[3,2-b][1,4]thiazin-6-ylmethyl)-amino]-cyclohexanecarboxylic acid (6-methoxy-[1,5]naphthyridin-4-yl)-amide dihydrochloride], for which the MIC is ≤ 2 µg/mL. With `N#Cc1ccc2cccc(NC(=O)[C@]3(O)CC[C@@H](NCc4cc5c(cn4)OCCO5)CC3)c2n1` [Example 38, t-4-[(2,3-Dihydro-[1,4]dioxino[2,3-c]pyridin-7-ylmethyl)-amino]-1-hydroxy-r-cyclohexanecarboxylic acid (2-cyano-quinolin-8-yl)-amide hydrochloride], under setting [1], the MIC was ≤ 2 µg/mL. In the case of `COc1ccc2cccc(NC(=O)[C@]3(O)CC[C@@H](NCc4nc5c(cc4Cl)SCC(=O)N5)CC3)c2n1` [Example 24, t-4-[(7-Chloro-3-oxo-3,4-dihydro-2H-pyrido[3,2-b][1,4]thiazin-6-ylmethyl)-amino]-1-hydroxy-r-cyclohexanecarboxylic acid (2-methoxy-quinolin-8-yl)-amide dihydrochloride], under setting [2], the MIC was ≤ 2 µg/mL. Consider `COc1ccc2cccc(CCC3(O)CCC(NCc4ccc5c(n4)NC(=O)CS5)CC3)c2n1` (stereo not drawn) [Example 8, 6-({4-Hydroxy-4-[2-(2-methoxy-quinolin-8-yl)-ethyl]-cyclohexylamino}-methyl)-4H-pyrido[3,2-b][1,4]thiazin-3-one], for which the MIC under setting [1] was ≤ 2 µg/mL. For the compound `N#Cc1ccc2cccc(NC(=O)[C@@H]3CC[C@@H](NCc4cc5c(cn4)OCCO5)[C@@H](O)C3)c2n1` [Example 37, (1R,3S,4R)-4-[(2,3-Dihydro-[1,4]dioxino[2,3-c]pyridin-7-ylmethyl)-amino]-3-hydroxy-cyclohexanecarboxylic acid (2-cyano-quinolin-8-yl)-amide hydrochloride], the minimal inhibitory concentration (MIC) was ≤ 2 µg/mL.

On to `COc1ccc2cccc(NC(=O)[C@]3(O)CC[C@@H](NCc4ccc5c(n4)NC(=O)CS5)CC3)c2n1` [Example 5, 1-Hydroxy-t-4-[(3-oxo-3,4-dihydro-2H-pyrido[3,2-b][1,4]thiazin-6-ylmethyl)-amino]-r-cyclohexanecarboxylic acid (2-methoxy-quinolin-8-yl)-amide], for which the MIC under setting [1] was ≤ 2 µg/mL. In the case of `CC1CNc2cccc(NC(=O)[C@]3(O)CC[C@@H](NCc4ccc5c(n4)NC(=O)CO5)CC3)c2N1` (stereo partly drawn) [Example 33, 1-Hydroxy-t-4-[(3-oxo-3,4-dihydro-2H-pyrido[3,2-b][1,4]oxazin-6-ylmethyl)-amino]-c-cyclohexanecarboxylic acid (3-methyl-1,2,3,4-tetrahydro-quinoxalin-5-yl)-amide dihydrochloride], the MIC under setting [2] is ≤ 2 µg/mL. Consider `COc1ccc2cccc(NC(=O)[C@]3(O)CC[C@@H](NCc4nc5c(cc4F)SCC(=O)N5)CC3)c2n1` [Example 23, t-4-[(7-Fluoro-3-oxo-3,4-dihydro-2H-pyrido[3,2-b][1,4]thiazin-6-ylmethyl)-amino]-1-hydroxy-r-cyclohexanecarboxylic acid (2-methoxy-quinolin-8-yl)-amide dihydrochloride], for which the MIC under setting [1] was ≤ 8 µg/mL. Same read-out and setting: the figure for `COc1ccc2cccc(CC[C@]3(O)CC[C@@H](NCc4cnc5c(c4)NC(=O)CS5)CC3)c2n1` [Example 21, 7-({r-4-Hydroxy-4-[2-(2-methoxy-quinolin-8-yl)-ethyl]-c-cyclohexylamino}-methyl)-1H-pyrido[2,3-b][1,4]thiazin-2-one] is ≤ 2 µg/mL. As for `COc1ccc2cccc(NC(=O)[C@@H]3CC[C@@H](NCc4ccc5c(n4)NC(=O)CS5)[C@H](O)C3)c2n1` [Example 20, (1R,3R,4R)-3-Hydroxy-4-[(3-oxo-3,4-dihydro-2H-pyrido[3,2-b)[1,4]thiazin-6-ylmethyl)-amino]-cyclohexanecarboxylic acid (2-methoxy-quinolin-8-yl)-amide dihydrochloride], the MIC under setting [1] was ≤ 2 µg/mL.

For the compound `COc1ccc2cccc(CC[C@]3(O)CC[C@@H](NCc4ccc5c(n4)NC(=O)CO5)CC3)c2n1` [Example 7, 6-({4-Hydroxy-4-[2-(2-methoxy-quinolin-8-yl)-ethyl]-cyclohexylamino}-methyl)-4H-pyrido[3,2-b][1,4]oxazin-3-one], the minimum inhibitory concentration (MIC) under setting [1] was ≤ 2 µg/mL. Same read-out and setting: to `Cc1ccc2cccc(NC(=O)[C@]3(O)CC[C@@H](NCc4cc5c(cn4)OCCO5)CC3)c2n1` [Example 35, t-4-[(2,3-Dihydro-[1,4]dioxino[2,3-c]pyridin-7-ylmethyl)-amino]-1-hydroxy-c-cyclohexanecarboxylic acid (2-methyl-quinolin-8-yl)-amide dihydrochloride] belongs ≤ 8 µg/mL.
